In patent US6642201B1, “Use of a dipeptide for stimulating repair processes” (priority 1998, dated 2003):
Several values for one entry are separate records, joined by “and”; a condition that tells them apart may be missing. Identical values can stand only once. Marks after values point to notes of the source that are not given here. Where a SMILES comes first, the peptide text is derived from it.

Columns and labels:
[1] = test system: duodenum mucous membrane cells; test: Regeneration of the intestinal mucous membrane after radiation injury; format: in vivo, white male rats of the Wistar line; details: 8th day
Protocol: The work has been performed on 24 two-month-old white male rats of the Wistar line, weighing 90-100 grams. The following three groups of animals were researched;
2 group—control (irradiated animals);
3 group—irradiated animals injected with L-Lys-L-Glu dipeptide.
A general single γ—irradiation of 6 Gy, inducing “the syndrome of intestinal death”, was made by the cobalt apparatus GUB 20000, with the dose capacity of 200 rad/min.
L-Lys-L-Glu dipeptide was injected 24 hours after the irradiation—0.5 μkg in 0.5 ml of the […]—intraperitoneally during 5 days. The animals from the first and second groups received the […] by the same scheme.
The study of L-Lys-L-Glu dipeptide's action has been performed on the proximal section of the duodenum of irradiated animals. The animals were killed under nembutal narcosis (50 mg/kg on the 8th day after irradiation (beginning of the period of repair regeneration). Pieces of the duodenum were being preserved during 24 hours by Karnovsky for the electronic microscopy.
The ultra-structural research was conducted under the JEM-100S microscope (JEOL, Japan) at the ultra-thin microscopic sections prepared on the LKB-7A ultra-microtome (LKB, Sweden) and contrasted by uranilacetatc and lead cytrate.
Mast cells were selectively stained with 1% solution of toluidine blue (Fluka) in 0,5 M HCl, with pH—0.5 (8,9).
To reveal MTL-positive cells, were used rabbits' antibodies to metal-tioneins (1-2000).
Immunohistochemical identification of antigenes at the histological sections was made according to the main requirements to immune-peroxydase methods (10,11).
The quantity research was conducted with the help of the system of computer analysis of microscopic images—IMSTAR (Imstar, France)—the Morphostar-2 and Colquant-2 license applied software were employed, in accordance with the general principles of stereology in morphometry (12, 13). For each animal, the calculation of corresponding structures was made In ten visual eye sights by three sections of the studied organ. The mitotic index (1mit) and the index of proliferating ability (Ipcna) of the duodenum cells were defined in 10-15 standard sections of crypts, with the overall contents of not less than 1000 nuclei of enterocytes. The test area for finding serotonin-positive and mast cells covered not less than 3 mm^2. MML-positive cells were counted in 100 duodenum crypts.

white outbred mice = test: Sub-acute toxicity, daily intramuscular administration for 90 days; format: in vivo; details: i.m. daily 0.3, 1, 3 mg/kg for 90 days; doses exceeding therapeutic 100-1000 times
Protocol: The study of sub-acute toxicity of L-Lys-L-Glu dipeptide is carried out on 60 white outbred mice with body weight […]. The animals of experimental groups were exposed daily to a single administration of the drug intramuscularly for 90 days in doses 1 mg/kg, 0.3 mg/kg, 3 mg/kg in 0.5 ml of sodium chloride solution. The animals of control groups were administered with sodium chloride solution in the same quantity.
During the whole period of Investigation the animals were under daily control. There was monitored animal behavior, as well as chow and water consumption, condition of hairy and mucous surfaces. The animals were weighed weekly. Morphological composition and properties of peripheral blood were studied prior to and an the 30th, 60th, and 90th day of drug administration. Biochemical and coagulologic indices of the blood were studied upon experiment completion.

[2] = test system: sluggish-granulating wounds after surgical treatment for cancer; test: Clinical complex treatment of cancer patients with post-operative complications; format: in vivo
Protocol: In the pre-operation period, the patients underwent a radical-scheme, radiation therapy employing large fields of complex configuration on the linear electron accelerator (its power is 4,3 Mev) and gamma-therapy device “Rokus-M” in the brake mode. In particular cases, one of the components of the combined treatment was chemotherapy.
Beginning from the third day after the operation, 1 μkg of L-Lys-L-Glu dipeptide was injected intramuscularly daily during 10 days.

[3] = test system: purulent incised crushed wounds of the femural soft tissues; test: Healing of purulent incised crushed wounds of the soft tissues; format: in vivo, shinshilla rabbits; set-up: key: 1 point - absent; 2 points - single (traces); 3 points - few; 4 points - diffuse (moderately); 5 points - many-;; 6 points - very many; details: rabbits, 1 μkg i.m. daily 5 days
Text: The efficacy of L-Lys-L-Glu dipeptide was estimated on the model of purulent incised crushed wounds of the femural soft tissues in shinshilla rabbits of both sexes with body weight 2-3 kg. Therefore, the rabbits underwent shaving in the area of femural soft tissues with subsequent incision 5 cm long and 2 sm deep. Soft tissues (muscles, subcutaneous fat) were crushed with Kocher 's forcepts and infected with the pathogenic mixture Staphylococcus aureus, strain 186. Afterwards, the wound was sutured. In 72 hours the sutures were lifted; and the wound was treated with 3% solution of hydrogen peroxide.
The animals of experimental group were injected intramuscularly every day for five days with dipeptide L-Lys-L-Glu in a single dose 1 μkg per injection. Control rabbits were injected with sodium chloride solution according to the same scheme. In the process of treatment the wounds were treated with antiseptic remedies for external use.
The estimation of L-Lys-L-Glu dipeptide efficacy in the dynamics of the inflammatory process regression was based on the terms of crust rejection and wound clearance from the pyo-necrotic mass, and appearance of the granular tissue in the wound and beginning of edge epithelization. […] The activity of tissue enzymes was also estimated (5,6,7).

[4] = irradiated rats 6 Gy, 0.5 μkg i.p. during 5 days, duodenum
[5] = irradiated rats 6 Gy, 0.5 μkg i.p. during 5 days, duodenum crypts

For NCCCC[C@H](N)C(=O)N[C@@H](CCC(=O)O)C(=O)O [L-Lys-L-Glu dipeptide, L-lysil-L-glutamic acid] (H-Lys-Glu-OH), the “NMC/1 mm^2 (quantity of mast cells/1 square mm)” value [1, 4] was 24 ± 3 /1 mm^2, the “NMT/100 crypts (quantity of L-positive cells in 100 intestine crypts)” value [1, 4] was 102 ± 9 /100 crypts and the “Pser (volume density of serotonin-immunopositive cells)” value [1, 4] was 0.71 ± 0.09%. The “IPCNA (index of cell proliferative ability-PCNA)” value [1, 5] was 49.89% and 49.8 ± 0.7 %, the “Imit (mitotic index)” value [1, 5] was 4.7% and 4.7 ± 0.1% and the “MTL-positive cells in the crypts' base” value ([1]; irradiated rats) was “tendency to the increase of number and intensity of immune-staining”. For the same compound, the “quantitative density of enterochromaffinn cells” value ([1]; irradiated rats) was “practically gets equal to that of healthy animals”, the “side effects, sub-acute toxicity” value (white outbred mice) was “absence of side effects” and the “edema and pain in the wound area” value ([2]; 1 μkg i.m. daily during 10 days from third day after operation) was “helped to reduce edema and pain in the wound area”. For the same compound, the time of treatment ([2]; complex treatment) was “reduces the time of their treatment”, the “Acid phosphotase in histiocytes” value ([3]; day 6) was 5* and the “Alcaline phosphotase in vessels” value ([3]; day 14) was 5. For the same compound, the “Acid phosphotase in histiocytes” value ([3]; day 21) was 5, the “Alcaline phosphotase in leukocytes” value ([3]; day 21) was 5 and the “Alcaline phosphotase in vessels” value ([3]; day 21) was 5*. For the same compound, the “Acid phosphotase in histiocytes” value ([3]; day 28) was 5*, the “Acid phosphotase in histiocytes” value ([3]; day 40) was 5* and the “Alcaline phosphotase in leukocytes” value ([3]; day 40) was 5.
